Test results published in article PMC5034864 (Molecular microbiology, 2012).

How the values were obtained:
Assay in all cases: FRET of YPet-PilZ-CyPet fusion protein, titration
Type in all cases: binding
[1] = biological target: BcsA (STM3619) PilZ domain (Salmonella enterica, UniProt Q93IN2)
PA4324 = PA4324 (Pseudomonas aeruginosa, UniProt Q9HW77)
PA3353 = PA3353 (Pseudomonas aeruginosa, UniProt Q9HYP3)
YcgR (STM1798) = YcgR (STM1798) (Salmonella enterica, UniProt Q8ZP19)
YcgR (STM1798), sequence (Q8ZP19 whole entry): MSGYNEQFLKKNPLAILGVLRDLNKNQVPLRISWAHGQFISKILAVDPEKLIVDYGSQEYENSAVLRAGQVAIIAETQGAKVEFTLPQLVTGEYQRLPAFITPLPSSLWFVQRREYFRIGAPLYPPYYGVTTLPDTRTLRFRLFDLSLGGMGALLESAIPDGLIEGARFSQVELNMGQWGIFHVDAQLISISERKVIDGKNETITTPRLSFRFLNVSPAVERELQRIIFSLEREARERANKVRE

BcsA (STM3619) PilZ domain, sequence (Q93IN2 691-791): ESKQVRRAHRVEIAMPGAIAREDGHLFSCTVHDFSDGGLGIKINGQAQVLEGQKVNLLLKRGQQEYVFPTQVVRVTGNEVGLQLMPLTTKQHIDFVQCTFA

Nc1nc2c(ncn2[C@@H]2O[C@@H]3CO[P@](=O)(O)O[C@H]4[C@@H](O)[C@H](n5cnc6c(=O)[nH]c(N)nc65)O[C@@H]4CO[P@](=O)(O)O[C@H]3[C@H]2O)c(=O)[nH]1 [c-di-GMP]
Kd [1]: 8240 ± 238 nM | Kd (PA4324): 735 ± 474 nM | Kd (PA3353): 88 ± 17 nM | Kd (YcgR (STM1798)): 191 ± 18 nM
